Assay results as given in US5614526A, “Use of phenoxy-piperzine derivatives” (Hoffmann-La Roche Inc., priority 1995, dated 1997).

What follows are compounds tested against T1, dopamine-D4 receptor (Homo sapiens, UniProt P21917) (assay: Binding at the D4 receptor, [3H]spiperone displacement, membranes of D4-CHO cells). Details: Table 1, 200 pM [3H]spiperone, room temperature, 90 minutes.
T1 construct: expressed in transfected cells; host or cells: CHO (Chinese Hamster Ovary) cells, D4-CHO; crude membranes
T1 sequence (P21917 1-419): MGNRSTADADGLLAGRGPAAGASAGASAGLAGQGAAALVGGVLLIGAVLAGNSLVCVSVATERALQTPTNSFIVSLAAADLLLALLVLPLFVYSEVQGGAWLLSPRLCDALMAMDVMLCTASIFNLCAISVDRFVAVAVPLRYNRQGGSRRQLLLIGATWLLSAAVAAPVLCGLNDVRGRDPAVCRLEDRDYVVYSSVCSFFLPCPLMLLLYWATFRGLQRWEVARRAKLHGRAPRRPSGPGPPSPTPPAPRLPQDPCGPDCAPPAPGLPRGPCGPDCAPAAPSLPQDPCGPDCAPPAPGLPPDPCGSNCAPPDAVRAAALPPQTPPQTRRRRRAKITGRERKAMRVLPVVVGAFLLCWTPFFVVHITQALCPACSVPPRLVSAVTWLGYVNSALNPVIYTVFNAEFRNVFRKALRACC
Protocol: Compounds of formula I were characterized by their binding behavior at the D4 receptor. CHO cells (Chinese Hamster Ovary) were used in the test. Crude membranes were isolated by ultracentrifugation from D4 -CHO and D2 -CHO cells and were stored at -80° C. After thawing and homogenizing in a buffer solution (50mM Tris, 1 mM EDTA, 5 mM KCl, 1.5 mM CaCl2, 4 mM MgCl2, pH 7.4) they were incubated at room temperature for 90 minutes with 200 pM [^3 H] spiperone and an increasing concentration (1×10^-11 M to 1×10^-4 M) of test compound. A non-specific binding was established by incubating in the presence of 1×10^-5 M (+)-butaclamol. The unbound radioligand was removed by filtration through a GF/C glass filter and the bound radioactivity was determined by scintillation in a Packard TopCount. […] The calculation of the value was effected with ligand.

Row | Structure (SMILES) | Ki [nM]
1 | CC(=O)Nc1ccccc1OCC(O)CN1CCN(c2ccccc2C)CC1 (stereo not drawn) [Compound 6, N-[2-[2-Hydroxy-3-(4-o-tolyl-piperazin-1-yl)-propoxy]-phenly]-acetamide] | < 100
2 | Nc1ccccc1OCC(O)CN1CCN(c2ccccc2)CC1 (stereo not drawn) [Compound 2, 1-(2-Amino-phenoxy)-3-(4-phenyl-piperazin-1-yl)-propan-2-ol] | < 100
3 | CC(=O)Nc1ccccc1OCC(O)CN1CCN(c2ccccc2O)CC1 (stereo not drawn) [Compound 8, N-[2-[2-Hydroxy-3-[4-(2-hydroxy-phenyl)-piperazin-1-yl]-propoxy]-phenyl]-acetamide] | < 100
4 | OC(COc1ccccc1)CN1CCN(c2ccccc2)CC1 (stereo not drawn) [Compound 1, 1-Phenoxy-3-(4-phenyl-piperazin-1-yl)-propan-2-ol] | < 100
5 | COc1ccccc1N1CCN(CC(O)COc2ccccc2N)CC1 (single isomer, unassigned) [9(+), [+]-1-(2-Amino-phenoxy)-3-[4(2-methoxy-phenyl)-piperazin-1-yl]-propan-2-ol] | < 100
6 | OC(COc1cccc(C(F)(F)F)c1)CN1CCN(c2ccc(Cl)cc2)CC1 (stereo not drawn) [Compound 5, 1-[4-(4-Chloro-phenyl)-piperazin-1-yl]-3-(3-trifluoro-methyl-phenoxy)-propan-2-ol] | < 100
7 | COc1ccccc1N1CCN(CC(O)COc2ccccc2NC(C)=O)CC1 (single isomer, unassigned) [11(+), [+]-N-[2-[2-Hydroxy-3-[4-(2-methoxy-phenyl)-piperazin-1-yl]-propoxy]phenyl]-acetamide] | < 100
8 | COc1ccccc1N1CCN(CC(O)COc2ccccc2NC(C)=O)CC1 (single isomer, unassigned) [12(-), [-]-N-[2-[2-Hydroxy-3-[4-(2-methoxy-phenyl)-piperazin-1-yl]-propoxy]phenyl]-acetamide] | < 100
9 | COc1ccccc1N1CCN(CC(O)COc2ccccc2NC(C)=O)CC1 (racemic) [10(rac), N-[2-[2-Hydroxy-3-[4-(2-methoxy-phenyl)-piperazin-1-yl]-propoxy]-phenyl]-acetamide] | < 100
10 | NC(=O)c1ccccc1OCC(O)CN1CCN(c2ccccc2)CC1 (stereo not drawn) [Compound 4, 2-[2-Hydroxy-3-(4-phenyl-piperazin-1-yl)-propoxy]-benzamide] | < 100
11 | CC(=O)Nc1ccccc1OCC(O)CN1CCN(c2ccccc2C(F)(F)F)CC1 (stereo not drawn) [Compound 7, N-[2-[2-Hydroxy-3-[4-(2-trifluoromethyl-phenyl)-piperazin-1yl]-propoxy]phenyl]-acetamide] | < 100
12 | CC(=O)c1ccccc1OCC(O)CN1CCN(c2ccccc2)CC1 (stereo not drawn) [Compound 3, 1-[2-[2-Hydroxy-3-(4-phenyl-piperazin-1-yl)-propoxy]-phenyl]-ethanone] | < 100
13 | COc1ccccc1N1CCN(CC(COc2ccccc2NC(C)=O)OC(C)=O)CC1 (single isomer, unassigned) [31(+), Ethyl [+]-2-(2-acetylamino-phenoxy)-1-[4-(2-methoxy-phenyl)-piperazin-1-ylmethyl]acetate] | < 100

Other lines, results leading:

Row | Ki [nM] | Structure (SMILES)
14 | < 100 | COc1ccccc1N1CCN(CC(COc2ccccc2NC(C)=O)OC(C)=O)CC1 (stereo not drawn) [Compound 30, Ethyl 2-(2-acetylamino-phenoxy)-1-[4-(2-methoxy-phenyl)-piperazin-1-ylmethyl]-acetate]
15 | < 100 | C/C=C/C(=O)Nc1ccccc1OCC(O)CN1CCN(c2ccccc2OC)CC1 (single isomer, unassigned) [Compound 16, [+]-(E)-But-2-enolic acid [2-[2-hydroxy-3-[4-(2-methoxy-phenyl)-piperazin-1-yl]-propoxy]-phenyl]-amide]
16 | < 100 | CCOc1ccccc1N1CCN(CC(O)COc2ccccc2NC(=O)CC)CC1 (stereo not drawn) [Compound 21, N-[2-[3-[4-(2-Ethoxy-phenyl)-piperazin-1-yl]-2-hydroxy-propoxy]-phenyl]propionamide]
17 | < 100 | Nc1ccccc1OCC(O)CN1CCN(c2ccccc2[N+](=O)[O-])CC1 (stereo not drawn) [Compound 22, 1-(2-Amino-phenoxy)-3-[4-(2-nitro-phenyl)-piperazin-1-yl]-propan-2-ol]
18 | < 100 | CCCCCC(=O)Nc1ccccc1OCC(O)CN1CCN(c2ccccc2OC)CC1 (stereo not drawn) [Compound 14, Hexanoic acid [2-[2-hydroxy-3-[4-(2-methoxy-phenyl)-piperazin-1-yl]propoxy]-phenyl]-amide]
19 | < 100 | COc1ccccc1N1CCN(CC(O)COc2ccccc2NC(=O)c2ccco2)CC1 (stereo not drawn) [Compound 17, Furan-2-carboxylic acid [2-[2hydroxy-3-[4-(2-methoxy-phenyl)piperazin-1-yl]-propoxy]-phenyl]-amide]
20 | < 100 | COc1ccccc1N1CCN(CC(O)COc2ccccc2NC(N)=O)CC1 (stereo not drawn) [Compound 18, [2-[2-Hydroxy-3-[4-(2-methoxy-phenyl)-piperazin-1-yl]propoxy]-phenyl]-urea]
21 | < 100 | COc1ccccc1N1CCN(CC(O)COc2ccccc2NC(=O)C(C)(C)C)CC1 (stereo not drawn) [Compound 15, N-[2-[2-Hydroxy-3-[4-(2-methoxy-phenyl)-piperazin-1-yl]-propoxy]-phenyl]-2,2-dimethyl-propionamide]
22 | < 100 | CCC(=O)Nc1ccccc1OCC(O)CN1CCN(c2ccccc2OC)CC1 (stereo not drawn) [Compound 13, N-[2-[2-Hydroxy-3-[4-(2-methoxy-phenyl)-piperazin-1-yl]-propoxy]-phenyl]propionamide]
23 | < 100 | COc1ccccc1N1CCN(CC(O)COc2ccc(C)cc2NC(C)=O)CC1 (stereo not drawn) [Compound 19, N-[2-[2-Hydroxy-3-[4-(2-methoxy-phenyl)-piperazin-1-yl]-proxpoxy]-5-methyl-phenyl]-acetamide]
24 | < 100 | COc1ccccc1N1CCN(CC(O)COc2cc(C)ccc2NC(C)=O)CC1 (stereo not drawn) [Compound 20, N-[2-[2-Hydroxy-3-[4-(2-methoxy-phenyl)-piperazin-1-yl]-propoxy]-4-methyl-phenyl]-acetamide]

Same assay, conditions: Table 2, 200 pM [3H]spiperone, room temperature, 90 minutes

Row | Ki [nM] | Structure (SMILES)
25 | 10.2 | COc1cc(O)ccc1N1CCN(CC(O)COc2ccccc2NC(C)=O)CC1 (stereo not drawn) [Compound 25]
26 | 3.2 | COc1ccccc1N1CCN(CC(O)COc2ccccc2NS(C)(=O)=O)CC1 (stereo not drawn) [Compound 26]
27 | 29 | CCC(=O)Nc1ccccc1OCC(O)CN1CCN(c2ccccc2)CC1 (stereo not drawn) [Compound 24]
28 | 9.6 | Cc1cccc(OCC(O)CN2CCN(c3ccccc3)CC2)c1 (stereo not drawn) [Compound 23]
29 | 8.7 | CC(=O)Nc1ccccc1OCC(O)CN1CCN(c2ccccc2[N+](=O)[O-])CC1 (stereo not drawn) [Compound 29]
30 | 15 | COc1ccccc1N1CCN(CC(O)COc2ccc([N+](=O)[O-])cc2NC(C)=O)CC1 (stereo not drawn) [Compound 27]

These compounds were tested on D2 receptor (assay: Binding at the D2 receptor, [3H]spiperone displacement, membranes of D2-CHO cells (selectivity vs. D4)). Details: ratio of the Ki values at the D2 receptor and at the D4 receptor.
Protocol: CHO cells (Chinese Hamster Ovary) were used in the test. Crude membranes were isolated by ultracentrifugation from D4 -CHO and D2 -CHO cells and were stored at -80° C. After thawing and homogenizing in a buffer solution (50mM Tris, 1 mM EDTA, 5 mM KCl, 1.5 mM CaCl2, 4 mM MgCl2, pH 7.4) they were incubated at room temperature for 90 minutes with 200 pM [^3 H] spiperone and an increasing concentration (1×10^-11 M to 1×10^-4 M) of test compound. A non-specific binding was established by incubating in the presence of 1×10^-5 M (+)-butaclamol. The unbound radioligand was removed by filtration through a GF/C glass filter and the bound radioactivity was determined by scintillation in a Packard TopCount.
Compounds of formula I were compared with respect to their D2 receptor activity.

Row | Structure (SMILES) | Sel. vs. D2
31 | COc1cc(O)ccc1N1CCN(CC(O)COc2ccccc2NC(C)=O)CC1 (stereo not drawn) [Compound 25] | 1370
32 | COc1ccccc1N1CCN(CC(O)COc2ccccc2NS(C)(=O)=O)CC1 (stereo not drawn) [Compound 26] | 177
33 | CCC(=O)Nc1ccccc1OCC(O)CN1CCN(c2ccccc2)CC1 (stereo not drawn) [Compound 24] | 233
34 | Cc1cccc(OCC(O)CN2CCN(c3ccccc3)CC2)c1 (stereo not drawn) [Compound 23] | 300
35 | CC(=O)Nc1ccccc1OCC(O)CN1CCN(c2ccccc2[N+](=O)[O-])CC1 (stereo not drawn) [Compound 29] | 360
36 | COc1ccccc1N1CCN(CC(O)COc2ccc([N+](=O)[O-])cc2NC(C)=O)CC1 (stereo not drawn) [Compound 27] | 112
